Data as given in PubChem BioAssay (NCI).
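Interpolation was linear, between the two tested concentrations surrounding the appropriate level; five concentrations were tested over 48 hours in 96-well plates. GI50: concentration for 50% inhibition of growth. At the TGI there is no net growth.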

Experiments:
Test in all cases: NCI tumour cell line growth inhibition, 48 h
A549 NSCLC = test system: A549 NSCLC
SK-MEL-2 melanoma = test system: SK-MEL-2 melanoma
KM12 colon = test system: KM12 colon
SK-OV-3 ovarian = test system: SK-OV-3 ovarian
COLO 205 colon = test system: COLO 205 colon
TK-10 renal = test system: TK-10 renal
SK-MEL-28 melanoma = test system: SK-MEL-28 melanoma
NCI-H226 lung = test system: NCI-H226 lung
M14 melanoma = test system: M14 melanoma
SN12C renal = test system: SN12C renal

| SMILES | TGI (A549 NSCLC) | TGI (SK-MEL-2 melanoma) | TGI (KM12 colon) | TGI (SK-OV-3 ovarian) | TGI (COLO 205 colon) | TGI (TK-10 renal) | TGI (SK-MEL-28 melanoma) | TGI (NCI-H226 lung) | TGI (M14 melanoma) | TGI (SN12C renal) | GI50 (SN12C renal) | GI50 (A549 NSCLC) | GI50 (SK-MEL-2 melanoma) | GI50 (NCI-H226 lung) | GI50 (M14 melanoma) | GI50 (KM12 colon) | GI50 (SK-OV-3 ovarian) | GI50 (COLO 205 colon) | GI50 (TK-10 renal) | GI50 (SK-MEL-28 melanoma) |
| --- | --- | --- | --- | --- | --- | --- | --- | --- | --- | --- | --- | --- | --- | --- | --- | --- | --- | --- | --- | --- |
| CCCCN(CCCC)C(=Nc1ccccc1)N(CCCC)CCCC | 27.9 µM | 18.9 µM | 22.6 µM | 22.6 µM | 14 µM | 34.4 µM | 11.8 µM | – | – | – | – | – | – | – | – | – | – | – | – | – |
| O=C(c1ccccc1)c1nnn(Cc2cccc(Cl)c2)c1C(=O)c1ccccc1 | > 100 µM | > 100 µM | > 100 µM | > 100 µM | 38.8 µM | > 100 µM | > 100 µM | > 100 µM | > 100 µM | – | – | – | – | – | – | – | – | – | – | – |
| C=CCCc1cc(OC)ccc1CN(C)C(C)(C)CO | > 100 µM | > 100 µM | > 100 µM | – | > 100 µM | > 100 µM | > 100 µM | – | – | > 100 µM | – | – | – | – | – | – | – | – | – | – |
| Cc1ccc(S(=O)(=O)NCCCN(CCCNS(=O)(=O)c2ccc(C)cc2)S(=O)(=O)c2ccc(C)cc2)cc1 | > 100 µM | – | > 100 µM | > 100 µM | > 100 µM | > 100 µM | > 100 µM | > 100 µM | > 100 µM | > 100 µM | – | – | – | – | – | – | – | – | – | – |
| COc1ccc(C(=O)O/N=C2\CCCC\C2=C/c2ccccc2)cc1 | > 100 µM | – | – | > 100 µM | > 100 µM | > 100 µM | > 100 µM | – | > 100 µM | > 100 µM | – | – | – | – | – | – | – | – | – | – |
| Cc1c2c(n3c(nc4ccccc43)c1C#N)SCC2 | > 10 µM | > 10 µM | > 10 µM | > 10 µM | – | > 10 µM | > 10 µM | > 10 µM | > 10 µM | > 10 µM | – | – | – | – | – | – | – | – | – | – |
| Clc1ccc(Cl)c(N/N=C\c2c[nH]c3ccccc23)c1 | 29.4 µM | 26.7 µM | 26.3 µM | 27.2 µM | 30.4 µM | 26.8 µM | – | 34.3 µM | 25.4 µM | 22.3 µM | 7.15 µM | 14.1 µM | 13.1 µM | 7.99 µM | 12.8 µM | 7.45 µM | 12.8 µM | 14 µM | 12 µM | – |
| CC/C(=C(\c1ccccc1)c1ccc(OCCN(C)C)cc1)c1ccccc1 | – | – | – | – | – | – | – | – | – | – | 3.34 µM | 2.93 µM | – | – | 1.02 µM | 2.55 µM | – | 0.892 µM | – | 1.6 µM |
| CC(=O)O[C@@H]1C=CC(=O)C2(CC(=O)O[C@@H]2/C=C(\C)CCC=C(C)C)C1 (stereo not given in full) | 4.91 µM | 4.43 µM | 4.16 µM | 4.49 µM | 10.3 µM | 3.71 µM | 7.79 µM | 4.77 µM | – | 2.27 µM | 0.997 µM | 2.04 µM | 1.51 µM | 0.623 µM | – | 1.3 µM | 2 µM | 2.24 µM | 1.67 µM | 2.15 µM |
| COC1OC(OC)C2C(c3c(C)cc(C)cc3C)=NOC12 (stereo not given) | > 100 µM | > 100 µM | > 100 µM | > 100 µM | > 100 µM | > 100 µM | > 100 µM | > 100 µM | > 100 µM | – | – | – | – | – | – | – | – | – | – | – |
| CCN(CC)CCn1c(=N)n(CC(O)c2ccc(Cl)c(Cl)c2)c2ccccc21 (stereo not given) | – | 8.32 µM | 22.2 µM | 24.1 µM | 3.96 µM | 27.1 µM | 4.34 µM | 36.9 µM | 3.74 µM | 24.2 µM | 8.79 µM | – | 2.93 µM | 17 µM | 2.07 µM | 9.86 µM | 11.9 µM | 2.05 µM | 14.1 µM | 2.05 µM |
| O=C(CC1Sc2ccccc2NC1=O)Nc1cccc(Cl)c1 (stereo not given) | > 100 µM | > 100 µM | – | – | – | > 100 µM | 89.7 µM | 90.8 µM | > 100 µM | > 100 µM | – | – | – | – | – | – | – | – | – | – |
| CCc1ccc(Cc2ccc(CC)c(NC(=O)C(=O)Cc3nc4ccccc4nc3C)c2CC)c(CC)c1NC(=O)C(=O)Cc1nc2ccccc2nc1C | > 100 µM | > 100 µM | > 100 µM | > 100 µM | > 100 µM | > 100 µM | > 100 µM | – | > 100 µM | – | – | – | – | – | – | – | – | – | – | – |
| COCCNC(=O)C1C(=O)N(CCOC)C(=O)/C1=N/N (stereo not given) | > 100 µM | > 100 µM | > 100 µM | > 100 µM | – | > 100 µM | > 100 µM | > 100 µM | > 100 µM | > 100 µM | – | – | – | – | – | – | – | – | – | – |
| CCOC(=O)C(C(=O)c1ccccc1-c1ccccc1C(=O)O)=P(c1ccccc1)(c1ccccc1)c1ccccc1 | > 100 µM | 40.3 µM | – | – | 40.6 µM | > 100 µM | 33.3 µM | 73.7 µM | > 100 µM | > 100 µM | – | – | – | – | – | – | – | – | – | – |
| CN1CCC(O)C(CNC23CC4CC(CC(C4)C2)C3)C1 (stereo not given) | > 100 µM | > 100 µM | > 100 µM | > 100 µM | > 100 µM | > 100 µM | – | > 100 µM | – | > 100 µM | – | – | – | – | – | – | – | – | – | – |
| CC(=O)OC1COC(N2C(=O)C(=O)c3c(C)cc(Cl)nc32)C(OC(C)=O)C1OC(C)=O (stereo not given) | > 100 µM | > 100 µM | > 100 µM | – | > 100 µM | > 100 µM | > 100 µM | > 100 µM | > 100 µM | > 100 µM | – | – | – | – | – | – | – | – | – | – |
| C1=C[C@@H]2c3ccc4cnccc4c3NC[C@@H]2C1 | > 100 µM | – | > 100 µM | > 100 µM | > 100 µM | > 100 µM | > 100 µM | > 100 µM | > 100 µM | > 100 µM | – | – | – | – | – | – | – | – | – | – |
| COc1ccc(CN(O)C2C(CO)OC(n3cc(I)c(=O)[nH]c3=O)C2O)cc1 (stereo not given) | > 100 µM | > 100 µM | > 100 µM | > 100 µM | > 100 µM | > 100 µM | > 100 µM | – | > 100 µM | > 100 µM | – | – | – | – | – | – | – | – | – | – |
| COC(=O)C1=Cc2cc3c(cc2[C@H](c2ccc4c(c2)OCO4)C1C(=O)OC)OCO3 (stereo not given in full) | > 100 µM | – | > 100 µM | > 100 µM | > 100 µM | > 100 µM | > 100 µM | > 100 µM | > 100 µM | > 100 µM | – | – | – | – | – | – | – | – | – | – |
| CCS[C@H]1NC(=O)C1[C@H](C)O[Si](C)(C)C(C)(C)C (stereo not given in full) | > 100 µM | > 100 µM | > 100 µM | – | > 100 µM | > 100 µM | > 100 µM | – | – | > 100 µM | – | – | – | – | – | – | – | – | – | – |
